Laboratory results as given in US12364669B2, “Device and method for transdermal delivery of cannabidiol” (Remy Biosciences, Inc., priority 2020, dated 2025).

Assay: Diffusion of CBD from transdermal devices through a human cadaver epidermis, Franz Diffusion Cell method
Type: in vitro ADME
Details: Example 2, FIG. 4; reservoir device, 5 percent CBD in ethanol/water 70/30; with hydrophilic porous membrane 24 versus membrane omitted
Procedure: The effects of using a hydrophobic, porous membrane versus a hydrophilic, porous membrane (such as membrane 24) in reservoir transdermal device 20 are studied in this example. […] The backing 22 is an occlusive backing film (PE/PET from 3M). Hydroxy ethyl cellulose is added to the solution to yield a thixotropic preparation 27. A volume of 300 microliters of the preparation is placed in the reservoir 26.
The skin adhesive 30 is a BIO PSA 7-4301 adhesive coated to a thickness of 15 g/m^2 on side 36 of membrane 24. An overlay adhesive patch is placed over the reservoir which forms an island in the middle. The overlay assures adhesion of the reservoir to the skin. The device 20 is contacted with a human cadaver epidermis, and diffusion through the epidermis is measured using the Franz Diffusion Cell method.
In a first run, membrane 24 is a Lydall® Evopor™ 5E02A, hydrophilic, microporous membrane (of 0.2 micrometers pore size). […]
The device 20 is contacted with a human cadaver epidermis, and diffusion through the epidermis is measured using the Franz Diffusion Cell method. […]
This example is conducted using three reservoir transdermal devices such as those of Example 1, with each having the hydrophilic, porous membrane described therein. […] Diffusion through a human cadaver epidermis is measured using the Franz Diffusion Method. […]

C=C(C)[C@@H]1CCC(C)=C[C@H]1c1c(O)cc(CCCCC)cc1O [CBD, Cannabidiol]
permeability of CBD through the skin (cumulative flux versus time): the same regardless of whether the membrane 24 is provided
